Reference: patent publication US11168088B2 (SHANGHAI HAIYAN PHARMACEUTICAL TECHNOLOGY CO., LTD., priority 2016, dated 2021)
pIC50: −log10 of the molar value.

Legend:
Type in all cases: biochemical
[1] = target: CDK6 (Homo sapiens (Human), UniProt Q00534); test: In vitro kinase test (LANCE Ultra), CDK6
Source text: (§1) Recombinant CDK1/CCNB1 and CDK9/CCNT were purchased from BPS; CDK2/CCNA1, CDK4/CCND1 and CDK6/CCND1 were purchased from Invitrogen; CDK4/CycD3 and CDK6/CycD3 were purchased from Carna. Adenosine triphosphate (ATP) was purchased from Life tech. Substrate Ulight-4EBP1 and the corresponding detection antibody were purchased from Perkinelmer. The detection system was Perkinelmer's LANCE Ultra system.
(§2) In the kinase test, a compound to be tested was 1:3 diluted for 8 gradient points, added into a reaction plate, and then added an appropriate amount of recoinbinase. A buffer [50 mM HEPES […], 10 mM MgCl2, 3 mM MnCl2, 1 mM EGTA, 0.01% Tween-20, 1 mM TCEP] containing ATP/Ulight-4EBP1 premix with predetermined concentration was subsequently added, and the kinase reaction was started at room temperature. A test solution pre-mixed with 10 mM EDTA and detection antibody was added after a suitable reaction time, and then the fluorescence value was read on Tecan infinite pro after reacting for 1 hour at room temperature. The IC50 was calculated using a four-factor model fitting in a XLfit software.

[2] = target: CDK4 (Homo sapiens (Human), UniProt P11802); test: In vitro kinase test (LANCE Ultra), CDK4
Chain of CDK4 (P11802 whole entry, looked up): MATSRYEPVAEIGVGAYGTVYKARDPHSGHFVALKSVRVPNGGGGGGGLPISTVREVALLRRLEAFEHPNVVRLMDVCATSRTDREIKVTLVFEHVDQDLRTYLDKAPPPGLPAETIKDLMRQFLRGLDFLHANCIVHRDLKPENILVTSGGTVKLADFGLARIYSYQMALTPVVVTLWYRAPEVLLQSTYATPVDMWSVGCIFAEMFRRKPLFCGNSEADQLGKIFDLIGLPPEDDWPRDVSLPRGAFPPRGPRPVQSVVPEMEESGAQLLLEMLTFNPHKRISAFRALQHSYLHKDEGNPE
Chain of CDK4 (P24385 whole entry partner, looked up): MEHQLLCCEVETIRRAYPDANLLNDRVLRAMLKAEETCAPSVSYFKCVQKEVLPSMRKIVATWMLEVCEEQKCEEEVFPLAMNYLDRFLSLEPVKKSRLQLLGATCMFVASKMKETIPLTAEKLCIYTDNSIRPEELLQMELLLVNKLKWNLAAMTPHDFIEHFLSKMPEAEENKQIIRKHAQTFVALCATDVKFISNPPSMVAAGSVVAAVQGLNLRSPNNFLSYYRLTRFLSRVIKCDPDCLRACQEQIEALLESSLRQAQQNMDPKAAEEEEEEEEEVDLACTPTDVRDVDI
Source text: as §1, §2

[3] = target: CDK2 (Homo sapiens (Human), UniProt P24941); test: In vitro kinase test (LANCE Ultra), CDK2
Source text: as §1, §2

[4] = target: CDK1 (Homo sapiens (Human), UniProt P06493); test: In vitro kinase test (LANCE Ultra), CDK1
Chain of CDK1 (P06493 whole entry): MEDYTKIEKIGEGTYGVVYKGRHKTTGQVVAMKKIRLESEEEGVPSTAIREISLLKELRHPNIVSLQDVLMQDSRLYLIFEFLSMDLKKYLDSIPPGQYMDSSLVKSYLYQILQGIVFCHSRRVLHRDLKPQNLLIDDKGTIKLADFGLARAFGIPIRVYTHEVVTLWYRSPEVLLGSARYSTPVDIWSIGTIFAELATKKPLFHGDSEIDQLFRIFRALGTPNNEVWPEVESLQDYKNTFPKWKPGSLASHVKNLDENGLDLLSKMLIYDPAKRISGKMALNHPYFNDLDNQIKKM
Chain of CDK1 (P14635 whole entry partner): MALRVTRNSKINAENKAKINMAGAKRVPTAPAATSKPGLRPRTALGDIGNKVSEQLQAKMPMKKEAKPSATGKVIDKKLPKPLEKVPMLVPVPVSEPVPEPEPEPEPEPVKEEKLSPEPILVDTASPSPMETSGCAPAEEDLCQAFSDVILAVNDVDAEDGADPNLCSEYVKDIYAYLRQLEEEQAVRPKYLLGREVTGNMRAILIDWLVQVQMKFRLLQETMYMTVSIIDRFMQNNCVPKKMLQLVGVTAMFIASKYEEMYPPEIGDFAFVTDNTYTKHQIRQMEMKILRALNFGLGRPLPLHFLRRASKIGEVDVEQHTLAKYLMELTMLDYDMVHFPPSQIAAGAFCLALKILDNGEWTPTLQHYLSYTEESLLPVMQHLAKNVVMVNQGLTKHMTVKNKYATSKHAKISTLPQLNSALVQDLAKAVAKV
Source text: as §1, §2

Chain of CDK6 (Q00534 whole entry, looked up): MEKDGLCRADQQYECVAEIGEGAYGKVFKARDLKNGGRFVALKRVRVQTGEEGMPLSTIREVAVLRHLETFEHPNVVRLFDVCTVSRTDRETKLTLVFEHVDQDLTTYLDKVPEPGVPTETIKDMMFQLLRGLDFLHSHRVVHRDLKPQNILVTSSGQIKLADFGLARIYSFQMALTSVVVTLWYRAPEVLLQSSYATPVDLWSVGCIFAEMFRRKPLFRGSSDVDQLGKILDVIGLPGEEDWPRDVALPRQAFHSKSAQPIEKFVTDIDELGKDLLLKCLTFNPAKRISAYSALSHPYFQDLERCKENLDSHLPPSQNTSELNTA
Chain of CDK6 (P24385 whole entry partner, looked up): as the sequence (P24385 whole entry partner, looked up) above

Row | pIC50 [1] | pIC50 [2] | pIC50 [3] | pIC50 [4] | Compound
1 | 6.08 | 6.99 |  |  | CC(C)c1c2c(nn1C)CC1(CC1)c1cnc(Nc3ccc(N4CCNCC4)cn3)nc1-2 [Compound P-56]
2 | 7.48 | 8.22 |  |  | CC(C)n1nc(C#N)c2c1-c1nc(Nc3ccc(N4CCNCC4)cn3)ncc1CC2 [Compound P-52, 1-isopropyl-8-(5-(piperazin-1-yl)pyridin-2-ylamino)-4,5-dihydro-1H-pyrazolo[4,3-H]quinazolin-3-carbonitrile]
3 | 6.35 | 7.43 |  |  | CCN1CCN(Cc2ccc(Nc3ncc4c(n3)-c3c(nn(CC)c3C(C)C)C4)nc2)CC1 [Compound P-45]
4 | 6.80 | 7.25 |  |  | CC(=O)C1(C)Cc2cnc(Nc3ccc(N4CCNCC4)cn3)nc2-c2c1ncn2C(C)C (centres unmarked) [Compound P-63]
5 | 6.65 | 7.77 | 5.89 | 5.36 | CC(C)c1c2c(nn1C)C(C)(C)c1cnc(Nc3ccc(N4CCNCC4)cn3)nc1-2 [Compound P-42]
6 | 7.38 | 8.22 | 5.01 | 5.07 | CCN1CCN(c2ccc(Nc3ncc4c(n3)-c3c(nn(C)c3C(C)C)C4)nc2)CC1 [Compound P-7]
7 | 6.28 | 6.89 |  |  | CC(=O)C1(C)Cc2cnc(Nc3ccc(N4CCNCC4)cn3)nc2-c2c1nn(C)c2C(C)C (centres unmarked) [Compound P-55]
8 | 7.51 | 8.05 |  | < 5.00 | CC(C)n1ncc2c1-c1nc(Nc3ccc(N4CCNCC4)cn3)ncc1CC2 [Compound P-25, 1-isopropyl-N-(5-(piperazin-1-yl)pyridin-2-yl)-4,5-dihydro-1H-pyrazolo[4,3H]quinazolin-8-amine]
9 | 6.15 | 6.86 |  |  | c1cc(Nc2ncc3c(n2)-c2nn(C4CCCC4)cc2CC3)ncc1N1CCNCC1 [Compound P-36]
10 | 6.59 | 7.66 |  | 5.27 | CCc1nc2c(n1C(C)C)-c1nc(Nc3ccc(CN4CCN(CC)CC4)cn3)ncc1C2 [Compound P-5]
11 | < 5.52 | 5.97 |  |  | Cc1nc2sc3cnc(Nc4ccc(N5CCNCC5)cn4)nc3c2n1C(C)C [Compound P-65]
12 | 6.92 | 7.39 |  |  | Cc1nc2c(n1CC1CC1)-c1nc(Nc3ccc(N4CCNCC4)cn3)ncc1C2 [Compound P-28]
13 | 7.77 | 8.15 | 6.34 | < 6.00 | CC(C)c1[nH]nc2c1-c1nc(Nc3ccc(N4CCNCC4)cn3)ncc1CC2 [Compound P-29, 9-isopropyl-N-(5-(piperazin-1-yl)pyridin-2-yl)-6,8-dihydro-5H-pyrazolo[3,4-H]quinazolin-2-amine]
14 | 6.60 | 7.13 |  |  | c1cc(Nc2ncc3c(n2)-c2c(cnn2C2CCCCC2)CC3)ncc1N1CCNCC1 [Compound P-35]
15 | 8.10 | 8.22 |  |  | CC(C)c1c2c(nn1C(F)F)Cc1cnc(Nc3ccc(N4CCNCC4)cn3)nc1-2 [Compound P-27]
16 | 7.44 | 8.10 |  | < 5.00 | CCN1CCN(c2ccc(Nc3ncc4c(n3)-c3c(cnn3C(C)C)CC4)nc2)CC1 [Compound P-12]
17 | 7.08 | 7.68 | < 5.00 | < 5.00 | COCc1nn(C(C)C)c2c1CCc1cnc(Nc3ccc(N4CCNCC4)cn3)nc1-2 [Compound P-59, 1-isopropyl-3-(methoxymethyl)-N-(5-(piperazin-1-yl)pyridin-2-yl)-4,5-dihydro-1H-pyrazolo[4,3-H]quinazolin-8-amine]
18 | 7.40 | 8.22 |  |  | CCN1CCN(Cc2ccc(Nc3ncc4c(n3)-c3c(nn(CC)c3C(C)C)C(C)(C)C4)nc2)CC1 [Compound P-50]
19 | 6.58 | 8.00 | 5.22 | < 5.00 | CC(C)c1c2c3nc(Nc4ccc(N5CCNCC5)cn4)ncc3n(C)c2nn1C [Compound P-58]
20 | 7.70 | 8.30 | 6.28 | 5.99 | CC(C)c1c2c(nn1C)CCc1cnc(Nc3ccc(N4CCNCC4)cn3)nc1-2 [Compound P-14, 9-isopropyl-8-methyl-N-(5-(piperazin-1-yl)pyridin-2-yl)-6,8-dihydro-5H-pyrazolo[3,4-H]quinazolin-2-amine]
21 | 6.93 | 7.38 |  |  | CC(C)n1ncc2c1-c1nc(Nc3ccc(N4CCNCC4)cn3)ncc1CC2(C)C [Compound P-51]

Row | pIC50 [1] | pIC50 [2] | pIC50 [3] | pIC50 [4] | Compound
22 | 7.46 | 8.10 | 6.33 | 6.09 | CCn1nc2c(c1C(C)C)-c1nc(Nc3ccc(N4CCNCC4)cn3)ncc1CC2(C)C [Compound P-46]
23 | 7.36 | 8.30 |  |  | CCN1CCN(Cc2ccc(Nc3ncc4c(n3)-c3c(nc(C)n3C(C)C)CC4)nc2)CC1 [Compound P-41]
24 | 7.24 | 8.52 | 6.10 | 6.03 | CC(C)c1c2c(nn1C)C1(CC1)c1cnc(Nc3ccc(N4CCNCC4)cn3)nc1-2 [Compound P-57]
25 | 7.48 | 8.30 | 5.32 | 5.10 | CCn1nc2c(c1C(C)C)-c1nc(Nc3ccc(N4CCNCC4)cn3)ncc1CC2 [Compound P-4, 8-ethyl-9-isopropyl-N-(5-(piperazin-1-yl)pyridin-2-yl)-6,8-dihydro-5H-pyrazolo[3,4-H]quinazolin-2-amine]
26 | 7.96 | 8.52 | 6.09 | 5.45 | Cc1nc2c(n1C(C)C)-c1nc(Nc3ccc(N4CCNCC4)cn3)ncc1CC2 [Compound P-24, 1-isopropyl-2-methyl-N-(5-(piperazin-1-yl)pyridin-2-yl)-4,5-dihydro-1H-imidazo[4,5-H]quinazolin-8-amine]
27 | 7.42 | 8.40 |  | 6.37 | CCN1CCN(Cc2ccc(Nc3ncc4c(n3)-c3c(nn(CC)c3C(C)C)CC4)nc2)CC1 [Compound P-2]
28 | 6.78 | 7.37 |  |  | Cc1nc2c(n1C1CC1)-c1nc(Nc3ccc(N4CCNCC4)cn3)ncc1C2 [Compound P-11]
29 | 7.15 | 8.15 |  |  | CCn1nc2c(c1C(C)C)-c1nc(Nc3ccc(N4CCNCC4)cn3)ncc1OC2 [Compound P-49]
30 | 6.74 | 7.48 | 5.63 | 5.98 | c1cc(Nc2ncc3c(n2)-c2c(nc(C4CC4)n2C2CCCC2)C3)ncc1N1CCNCC1 [Compound P-39]
31 | 6.05 | 7.01 |  |  | CCn1nc2c(c1C(C)C)-c1nc(Nc3ccc(N4CCNCC4)cn3)ncc1C(C)(C)C2 [Compound P-48]
32 | 6.38 | 6.76 |  |  | CC(C)c1c2c(nn1C)CC(C)(C)c1cnc(Nc3ccc(N4CCNCC4)cn3)nc1-2 [Compound P-44]
33 | 7.34 | 8.30 | 6.29 | 6.15 | CC(C)c1c2c(nn1C)C(C)c1cnc(Nc3ccc(N4CCNCC4)cn3)nc1-2 (centres unmarked) [Compound P-47]
34 | 6.12 | 6.80 |  |  | CC(C)c1c2c(nn1C)C(C)(C(C)O)Cc1cnc(Nc3ccc(N4CCNCC4)cn3)nc1-2 (centres unmarked) [Compound P-60, 1-(9-isopropyl-6,8-dimethyl-2-(5-(piperazin-1-yl)pyridin-2-ylamino)-6,8-dihydro-5H-pyrazolo[3,4-H]quinazolin-6-yl)ethanol]
35 | 6.79 | 8.00 | 5.08 | < 5.00 | CC(C)c1c2c(nn1C)Cc1cnc(Nc3ccc(N4CCNCC4)cn3)nc1-2 [Compound P-8]
36 | 7.37 | 7.64 | 5.08 | 5.25 | Cc1nc2c(n1C1CCCC1)-c1nc(Nc3ccc(N4CCNCC4)cn3)ncc1C2 [Compound P-13]
37 | 6.15 | 7.46 | 5.30 | 5.20 | CCc1nc2c(n1CC)-c1nc(Nc3ccc(N4CCNCC4)cn3)ncc1C2 [Compound P-21]
38 | 7.07 | 8.22 | 5.88 | 5.56 | CCc1nc2c(n1C(C)C)-c1nc(Nc3ccc(N4CCNCC4)cn3)ncc1CC2 [Compound P-23, 2-ethyl-1-isopropyl-N-(5-(piperazin-1-yl)pyridin-2-yl)-4,5-dihydro-1H-imidazo[4,5-H]quinazolin-8-amine]
39 | 6.88 | 7.80 |  |  | CCN1CCN(Cc2ccc(Nc3ncc4c(n3)-c3c(cnn3C(C)C)CC4)nc2)CC1 [Compound P-10]
40 | 6.44 | 7.39 |  |  | c1cc(Nc2ncc3c(n2)-c2c(cnn2C2CCOC2)CC3)ncc1N1CCNCC1 (centres unmarked) [Compound P-37]
41 | 7.34 | 8.05 |  |  | Cc1nn(C2CCCC2)c2c1CCc1cnc(Nc3ccc(N4CCNCC4)cn3)nc1-2 [Compound P-43]
42 | 7.37 | 7.70 |  |  | CCc1nc2c(n1C(C)C)-c1nc(Nc3ccc(N4CCNCC4)cn3)ncc1C2 [Compound P-22]

Row | Compound | pIC50 [1] | pIC50 [2] | pIC50 [3] | pIC50 [4]
43 | c1cc(Nc2ncc3c(n2)-c2c(cnn2C2CCCC2)CC3)ncc1N1CCNCC1 [Compound P-9, 1-cyclopentyl-N-(5-(piperazin-1-yl)pyridin-2-yl)-4,5-dihydro-1H-pyrazolo[4,3H]quinazolin-8-amine] | 7.40 | 8.10 | 5.84 | 5.29
44 | CC(C)c1c2c(nn1C)COc1cnc(Nc3ccc(N4CCNCC4)cn3)nc1-2 [Compound P-30] | 7.47 | 8.05 | 6.12 | 6.07
